In patent US20260220796A1, “Systems and Methods for High Throughput Single Molecule Tracking in Living Cells” (EIKON THERAPEUTICS, INC., priority 2022, published 2026):
“Also recorded” adds a separate entry of the source. Where two headings read alike, the source gives them in different places.

Legend:
Estrogen Receptor (ER) [1] = target: T1, Estrogen Receptor (ER) (Homo sapiens, UniProt P03372); assay: htSMT of Halo-ER in U2OS cells (fbound, Dfree); type: cell-based; conditions: for change in ER fbound (direction): follow-up of screen actives, dose titration or 100 nM
T1 construct: expressed in transfected cells
T1 sequence (P03372 1-595): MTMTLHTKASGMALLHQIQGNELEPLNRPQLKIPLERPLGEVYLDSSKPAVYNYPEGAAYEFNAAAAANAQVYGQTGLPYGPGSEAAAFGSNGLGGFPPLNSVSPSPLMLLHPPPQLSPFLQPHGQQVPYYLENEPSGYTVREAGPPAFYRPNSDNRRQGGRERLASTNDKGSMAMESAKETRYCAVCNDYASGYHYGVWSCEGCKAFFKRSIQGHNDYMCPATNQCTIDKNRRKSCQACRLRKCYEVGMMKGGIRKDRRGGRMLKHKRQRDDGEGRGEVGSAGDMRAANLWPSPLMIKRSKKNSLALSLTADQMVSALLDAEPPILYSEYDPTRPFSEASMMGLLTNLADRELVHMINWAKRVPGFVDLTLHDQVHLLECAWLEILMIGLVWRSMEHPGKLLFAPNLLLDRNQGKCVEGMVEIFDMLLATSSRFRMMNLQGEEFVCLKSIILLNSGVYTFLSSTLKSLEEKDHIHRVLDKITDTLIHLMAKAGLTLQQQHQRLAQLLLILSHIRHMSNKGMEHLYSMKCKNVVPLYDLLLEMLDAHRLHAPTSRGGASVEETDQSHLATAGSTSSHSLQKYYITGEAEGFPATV

[2] = target: T2, glucocorticoid receptor (GR) (Homo sapiens, UniProt P04150); assay: htSMT of Halo-GR in U2OS cells; type: cell-based; conditions: 1 μM antagonist, singly or with cognate agonist, FIG. 36D
T2 construct: Because U2OS cells express GR endogenously, HaloTag was inserted right before the stop codon of endogenous NR3C1; endogenous in cells; host or cells: U2OS, CRISPR/Cas9 HaloTag knock-in at the endogenous NR3C1 locus
T2 sequence (P04150 1-777): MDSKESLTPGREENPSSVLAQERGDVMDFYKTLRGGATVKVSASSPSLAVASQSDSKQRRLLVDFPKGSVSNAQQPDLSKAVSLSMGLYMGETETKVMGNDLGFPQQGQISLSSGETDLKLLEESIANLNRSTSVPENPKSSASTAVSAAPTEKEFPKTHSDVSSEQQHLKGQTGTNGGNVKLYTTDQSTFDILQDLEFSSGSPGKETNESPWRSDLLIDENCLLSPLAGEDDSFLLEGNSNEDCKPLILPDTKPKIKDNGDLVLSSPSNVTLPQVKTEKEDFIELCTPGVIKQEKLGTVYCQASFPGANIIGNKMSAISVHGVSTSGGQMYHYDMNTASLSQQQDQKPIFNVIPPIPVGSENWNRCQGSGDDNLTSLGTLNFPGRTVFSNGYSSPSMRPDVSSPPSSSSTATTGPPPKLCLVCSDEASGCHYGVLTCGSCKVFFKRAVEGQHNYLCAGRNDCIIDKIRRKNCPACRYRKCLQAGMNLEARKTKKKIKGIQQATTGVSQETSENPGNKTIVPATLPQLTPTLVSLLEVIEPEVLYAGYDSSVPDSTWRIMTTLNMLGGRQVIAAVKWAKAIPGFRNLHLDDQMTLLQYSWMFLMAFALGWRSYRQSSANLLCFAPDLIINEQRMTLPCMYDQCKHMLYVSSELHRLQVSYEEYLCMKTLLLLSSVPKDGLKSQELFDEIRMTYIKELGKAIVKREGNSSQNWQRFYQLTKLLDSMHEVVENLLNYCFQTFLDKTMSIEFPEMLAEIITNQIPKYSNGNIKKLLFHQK
Excerpt: Where appropriate, compounds were serially diluted in an Echo Qualified 384-Well Low Dead Volume Source Microplate (0018544, Beckman Coulter) to generate dose-titration source material.

androgen receptor (AR) = androgen receptor (AR) (Homo sapiens, UniProt P10275)
Estrogen Receptor (ER) [3] = target: T1, Estrogen Receptor (ER); assay: kinetic SMT (kSMT) of ER after compound addition; type: cell-based; conditions: FIG. 18C, 18D
ER = target: T3, ER (Homo sapiens, UniProt P03372); assay: Western blot of ER after compound treatment; type: cell-based; conditions: 24 hours prior to lysis; MCF7, T47d, U2OS Halo-ER; FIG. 22A
T3 construct: host or cells: Halo-ER U2OS, MCF7 or T47d (immunofluorescence)
T3 sequence (P03372 1-595): T1 sequence (P03372 1-595)

Estrogen Receptor (ER) [4] = target: T1, Estrogen Receptor (ER); assay: residence time imaging of ER-Halo (track length survival); type: cell-based; conditions: 100 nM, versus DMSO, FIG. 18E

androgen receptor (AR), sequence (P10275 whole entry): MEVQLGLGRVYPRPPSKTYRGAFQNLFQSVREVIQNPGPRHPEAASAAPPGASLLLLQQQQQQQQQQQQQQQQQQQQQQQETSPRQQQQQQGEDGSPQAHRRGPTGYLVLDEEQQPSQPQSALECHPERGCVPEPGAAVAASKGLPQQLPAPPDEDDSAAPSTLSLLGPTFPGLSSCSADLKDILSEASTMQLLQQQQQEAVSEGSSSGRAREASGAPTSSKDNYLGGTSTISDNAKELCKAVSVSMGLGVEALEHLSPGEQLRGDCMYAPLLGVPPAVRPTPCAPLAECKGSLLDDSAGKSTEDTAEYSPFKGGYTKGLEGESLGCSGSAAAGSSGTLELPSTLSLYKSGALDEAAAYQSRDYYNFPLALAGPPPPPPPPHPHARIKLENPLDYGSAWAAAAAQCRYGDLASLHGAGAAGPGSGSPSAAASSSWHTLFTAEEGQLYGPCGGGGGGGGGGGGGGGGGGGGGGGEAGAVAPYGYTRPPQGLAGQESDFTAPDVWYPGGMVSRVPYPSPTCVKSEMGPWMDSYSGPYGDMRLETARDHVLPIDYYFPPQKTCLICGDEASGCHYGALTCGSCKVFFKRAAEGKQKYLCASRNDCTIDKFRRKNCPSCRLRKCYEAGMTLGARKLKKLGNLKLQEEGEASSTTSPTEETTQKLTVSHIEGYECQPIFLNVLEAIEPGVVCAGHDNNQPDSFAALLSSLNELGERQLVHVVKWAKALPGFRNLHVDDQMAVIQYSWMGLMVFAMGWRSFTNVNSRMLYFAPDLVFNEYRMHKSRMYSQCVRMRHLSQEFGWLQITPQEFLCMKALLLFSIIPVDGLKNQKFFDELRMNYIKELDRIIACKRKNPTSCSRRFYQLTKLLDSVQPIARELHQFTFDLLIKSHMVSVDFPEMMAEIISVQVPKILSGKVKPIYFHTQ

## 4-hydroxytamoxifen
Estrogen Receptor (ER) [1]
  change in ER fbound / ER movement in bioactive screen: significantly increased fbound
  maximal increase in fbound, compared: lower maximal increases in fbound

## CN(C)c1ccc(C(c2ccc(N(C)C)cc2)c2cc([N+](=O)[O-])ccc2Cl)cc1 [AL082D06]
[2]
  effect on GR chromatin binding (change in fbound): decrease in chromatin binding

## CC(O)c1cc(C(=O)N[C@@H](C)Cn2ccc(-c3ccc(C#N)c(Cl)c3)n2)[nH]n1 (stereo partly shown) [Darolutamide]
Androgen receptor (AR)
  effect on AR chromatin binding (change in fbound): decrease in chromatin binding

## COc1cccc(-c2cc(F)ccc2[C@H]2Cc3nc(N)nc(C)c3C(=O)N2)n1 [HSP990]
Estrogen Receptor (ER) [1]
  change in ER fbound (direction): increase in fbound
Estrogen Receptor (ER) [3]
  time course of overall effect on ER movement: reached a plateau after an hour

## CC(C)C[C@H](NC(=O)[C@H](Cc1ccccc1)NC(=O)c1cnccn1)B(O)O [bortezomib]
Estrogen Receptor (ER) [3]
  time course of overall effect on ER movement: slowly increasing over the four-hour measurement window

## CC(C)C[C@H](NC(=O)[C@H](CCc1ccccc1)NC(=O)CN1CCOCC1)C(=O)N[C@@H](Cc1ccccc1)C(=O)N[C@@H](CC(C)C)C(=O)[C@@]1(C)CO1 [carfilzomib]
Estrogen Receptor (ER) [3]
  time course of overall effect on ER movement: slowly increasing over the four-hour measurement window

## C[C@]12CC[C@@H]3c4ccc(O)cc4C[C@@H](CCCCCCCCC[S+]([O-])CCCC(F)(F)C(F)(F)F)[C@H]3[C@@H]1CC[C@@H]2O (stereo partly shown) [fulvestrant]
Estrogen Receptor (ER) [1]; 1 μM compound versus DMSO, 5,067-molecule screen, FIG. 15, 18A
  change in ER fbound / ER movement in bioactive screen: increase in fbound; also recorded: significantly increased fbound
ER
  ER degradation (western blot): leads to the degradation of ER

## CC(C)c1cc(-c2n[nH]c(=O)n2-c2ccc3c(ccn3C)c2)c(O)cc1O [ganetespib]
Estrogen Receptor (ER) [1]
  change in ER fbound (direction): increase in fbound
Estrogen Receptor (ER) [3]
  time course of overall effect on ER movement: reached a plateau after an hour
Estrogen Receptor (ER) [4]
  decrease in total number of long binding events: four
